These are literature values, as cited in patent publication US20150314047A1, “BORON COMPOSITE SURFACE COATINGS AND THEIR APPLICATION ON IMPLANTABLE DEVICES TO ACCELERATE OSSEOUS HEALING” (Rutgers, The State University of New Jersey, priority 2014, published 2015).

The subject of series [1] is human origin cultured cells.
The next series deals with pre-osteoblastic cells. To be noted: 0.1, 1, 10, and 100 ng/mL boron concentrations.
Another series has as its system axial skeleton. The conditions noted are these: boron administered at several concentrations.

Read-outs that look alike come from different tables or passages of the source.

`[Co]` [cobalt]: the “Effect on cell survival” value in series [1] (even at reasonably high concentrations) is given as “negatively affected cell survival”.

As for cubic boron nitride, the “Effect on cell survival” value in series [1] is “did not affect cell survival”.

In the case of `[B]` [boron], the “Bone Morphogenic Proteins (BMPs)-4, -6, and -7” value with pre-osteoblastic cells was “increases”. The “Higher resistance to vertebral crushing force” value in the series with axial skeleton is on record as 10%.
